Test results reported in patent US20250129067A1 (Progentos Therapeutics, Inc., priority 2021, published 2025).

Tests used:
[1] = test system: GPR17+ cells (newly differentiated oligodendrocytes); experiment: In vivo OPC differentiation, GPR17+ cells in brain; conditions: Mus musculus, po, 24 h, read-out: GPR17 Fold Induction (Over Vehicle)
Experimental: The ability of newly constructed compounds to drive OPC differentiation and myelination in vivo was tested. The ability of these compounds to drive OPC differentiation in vivo was tested using GPR17 as an indicator of newly differentiated oligodendrocytes.
Compounds were delivered PO or IP either QD or BID. Mice were dosed once, transiently, or continuously through the treatment period, which ranged from 1-3 days.
Mice were euthanized by isoflurane exposure and transcardially perfused with 14 mL of PBS (Sigma Cat #P4417-50TAB) followed by 22 mL of 3.2% paraformaldehyde in PBS. The brains were removed and postfixed for a minimum of 24 hours in 20 mL of 3.2% paraformaldehyde.
50-micron floating sections were cut using a Leica VT1200S vibratome. Every 24th section, extending through the antero-posterior extent of the brain, was stained. The selected brain sections were washed three times in PBS for 3 minutes each. The floating sections were incubated in the primary antibodies (see Table 10, below) diluted in blocking solution overnight at room temperature on a shaker. […] The next day, the sections were again washed three times in PBS for 3 minutes each and then incubated in the secondary antibodies diluted in blocking solution for 2 hours at room temperature on a shaker. After incubation, the sections were washed three times in PBS for 3 minutes each and mounted on a slide to be imaged using the Olympus Slide Scanner VS200.
The images were analyzed using a custom protocol developed using Visiopharm software to count GPR17+ cells. Cells were considered GPR17+ if they contained an Olig2 positive nucleus, and intense GPR 17 staining that filled their processes. Statistical analysis was done using one-way ANOVA with multiple comparison in GraphPad Prism software.

PDGFRα = PDGFRα (Homo sapiens (Human), UniProt P16234); experiment: PDGFRα kinase enzyme assay (Promega PDGFRα Kinase Enzyme System, ADP-Glo); assay type: biochemical; conditions: 11-point dose response, 10,000 nM to 0.169 nM, 150 uM ATP, BLQ = below limit of quantitation; for IC50: read-out: IC50 Values on PDGFRα Kinase Inhibition, IC50
Procedure, shortened: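 Purified PDGFRα protein (20 ng) reacted with test compound per the Promega kinase system protocol. ADP formed was measured by ADP-Glo luminescence against a standard curve, giving IC50.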

[2] = test system: Oligodendrocyte progenitor cells (OPCs); experiment: In vitro OPC differentiation assay, GPR17 expression (immunocytochemistry); conditions: 3 μM (10× concentration, final 0.3 μM); 72 hours; fold change over vehicle

Sequence of PDGFRα (P16234 24-1089): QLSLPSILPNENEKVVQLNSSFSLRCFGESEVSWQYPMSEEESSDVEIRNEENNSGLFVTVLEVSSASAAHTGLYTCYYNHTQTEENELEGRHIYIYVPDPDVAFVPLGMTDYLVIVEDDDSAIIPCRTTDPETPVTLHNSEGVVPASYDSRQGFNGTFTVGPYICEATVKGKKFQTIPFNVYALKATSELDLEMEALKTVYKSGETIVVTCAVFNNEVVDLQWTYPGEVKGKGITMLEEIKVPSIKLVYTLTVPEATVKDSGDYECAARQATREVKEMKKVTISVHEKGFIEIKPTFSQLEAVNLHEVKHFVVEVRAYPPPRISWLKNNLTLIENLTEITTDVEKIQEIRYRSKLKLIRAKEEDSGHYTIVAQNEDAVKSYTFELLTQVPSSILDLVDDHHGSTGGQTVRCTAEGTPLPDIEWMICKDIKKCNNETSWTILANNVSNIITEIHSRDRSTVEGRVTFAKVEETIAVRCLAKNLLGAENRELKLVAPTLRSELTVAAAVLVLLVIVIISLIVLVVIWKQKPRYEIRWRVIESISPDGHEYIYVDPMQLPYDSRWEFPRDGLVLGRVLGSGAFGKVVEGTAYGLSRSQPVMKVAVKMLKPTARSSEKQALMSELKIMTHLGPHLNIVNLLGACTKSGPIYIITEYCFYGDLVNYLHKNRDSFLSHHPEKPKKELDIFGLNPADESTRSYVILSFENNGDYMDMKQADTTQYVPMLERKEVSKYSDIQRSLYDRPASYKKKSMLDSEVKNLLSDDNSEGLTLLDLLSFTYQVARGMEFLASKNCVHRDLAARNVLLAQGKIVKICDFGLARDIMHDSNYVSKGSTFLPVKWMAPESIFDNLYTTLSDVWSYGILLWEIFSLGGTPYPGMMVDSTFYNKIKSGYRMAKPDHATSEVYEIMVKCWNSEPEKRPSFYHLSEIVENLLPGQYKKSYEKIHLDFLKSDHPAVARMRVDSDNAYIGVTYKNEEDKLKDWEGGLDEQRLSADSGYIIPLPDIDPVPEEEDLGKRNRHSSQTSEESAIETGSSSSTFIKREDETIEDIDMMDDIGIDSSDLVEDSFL

Row | Structure (SMILES) | IC50 (PDGFRα) | GPR17 Fold Induction (Over Vehicle; 3 μM) [2] | IC50 Values on PDGFRα Kinase Inhibition, IC50 (nM) (PDGFRα) | fold induction at 3 mg/kg [1] | fold induction at 30 mg/kg [1]
1 | Cn1cc(-c2ccc3c(N4CCC(c5ncc(Cc6ccccc6)cn5)CC4)cnn3c2)cn1 [Compound 148, 3-(4-(5-benzylpyrimidin-2-yl)piperidin-1-yl)-6-(1-methyl-1H-pyrazol-4-yl)pyrazolo[1,5-a]pyridine] | 8160 nM | 7.82 |  | 1.22 | 
2 | Cn1cc(-c2ccc3c(N4CCN(c5ccc(Cc6ccccc6)nc5)CC4)cnn3c2)cn1 [Compound 151, 3-(4-(6-benzylpyridin-3-yl)piperazin-1-yl)-6-(1-methyl-1H-pyrazol-4-yl)pyrazolo[1,5-a]pyridine] | 2780 nM | 20.40 |  | 1.73 | 
3 | Cn1cc(-c2ccc3c(N4CCN(S(=O)(=O)N5CCCCC5)CC4)cnn3c2)cn1 [Compound 157, 6-(1-methyl-1H-pyrazol-4-yl)-3-(4-(piperidin-1-ylsulfonyl)piperazin-1-yl)pyrazolo[1,5-a]pyridine] | 2100 nM | 2.80 |  |  | 1.91
4 | Cn1cc(-c2ccc3c(N4CCN(C(=O)NCc5ccccc5)CC4)cnn3c2)cn1 [Compound 161, N-benzyl-4-(6-(1-methyl-1H-pyrazol-4-yl)pyrazolo[1,5-a]pyridin-3-yl)piperazine-1-carboxamide] | 2110 nM | 3.97 |  | 1.81 | 
5 | Cn1cc(-c2ccc3c(N4CCN(c5ncc(Cc6ccco6)cn5)CC4)cnn3c2)cn1 [Compound 181, 3-(4-(5-(furan-2-ylmethyl)pyrimidin-2-yl)piperazin-1-yl)-6-(1-methyl-1H-pyrazol-4-yl)pyrazolo[1,5-a]pyridine] | 1860 nM | 4.87 |  | 1 | 
6 | CC(C)(C)OC(=O)N1CCN(c2cnn3cc(-c4cccnc4)ccc23)CC1 [Compound 217, tert-butyl 4-(6-(pyridin-3-yl)pyrazolo[1,5-a]pyridin-3-yl)piperazine-1-carboxylate] | 594 nM | 1.69 |  | 0.97 | 
7 | Cn1cc(-c2ccc3c(N4CCN(c5ccc(C(O)c6ccccc6)nc5)CC4)cnn3c2)cn1 (stereo not drawn) [Compound 241, (5-(4-(6-(1-methyl-1H-pyrazol-4-yl)pyrazolo[1,5-a]pyridin-3-yl)piperazin-1-yl)pyridin-2-yl)(phenyl)methanol] | 974 nM | 16.27 |  | 6.43 | 
8 | Cn1cc(-c2ccc3c(N4CCN(c5ncc(Cc6ccccc6)o5)CC4)cnn3c2)cn1 [Compound 247, 5-benzyl-2-(4-(6-(1-methyl-1H-pyrazol-4-yl)pyrazolo[1,5-a]pyridin-3-yl)piperazin-1-yl)oxazole] | 1780 nM | 2.45 |  |  | 8.43
9 | C[C@@H](OC(=O)N1CCN(c2cnc3cc(-c4cnn(C)c4)cnn23)CC1)c1ccc(Cl)cc1 [Compound 282, (R)-1-(4-chlorophenyl)ethyl 4-(7-(1-methyl-1H-pyrazol-4-yl)imidazo[1,2-b]pyridazin-3-yl)piperazine-1-carboxylate] |  | 6.40 | BLQ | 4.02 | 
10 | C[C@@H](OC(=O)N1CCN(c2cnc3cc(-c4cnn(C)c4)cnn23)CC1)c1ccc(C(F)(F)F)cc1 [Compound 283, (R)-1-(4-(trifluoromethyl)phenyl)ethyl 4-(7-(1-methyl-1H-pyrazol-4-yl)imidazo[1,2-b]pyridazin-3-yl)piperazine-1-carboxylate] |  | 5.90 | BLQ | 6.8 | 
11 | [2H]c1c([2H])c(C(OC(=O)N2CCN(c3cnn4cc(-c5cnn(C)c5)ccc34)CC2)C([2H])([2H])[2H])c([2H])c([2H])c1Cl (stereo not drawn) [Compound 291, 1-(4-chlorophenyl-2,3,5,6-d4) ethyl-2,2,2-d3 4-(6-(1-methyl-1H-pyrazol-4-yl)pyrazolo[1,5-a]pyridin-3-yl)piperazine-1-carboxylate] | 0.016 nM | 6.24 |  | 6.93 | 

The next lines start with results.

Row | IC50 (PDGFRα) | GPR17 Fold Induction (Over Vehicle; 3 μM) [2] | IC50 Values on PDGFRα Kinase Inhibition, IC50 (nM) (PDGFRα) | Structure (SMILES) | fold induction at 3 mg/kg [1] | fold induction at 30 mg/kg [1]
12 | 245 nM | 3.92 |  | Cn1cc(-c2ccc3c(N4CCN(c5ncn(Cc6ccccc6)n5)CC4)cnn3c2)cn1 [Compound 156, 3-(4-(1-benzyl-1H-1,2,4-triazol-3-yl)piperazin-1-yl)-6-(1-methyl-1H-pyrazol-4-yl)pyrazolo[1,5-a]pyridine] | 11.5 | 
13 | 126 nM | 9.26 |  | Cn1cc(-c2ccc3c(N4CCN(c5ncc(CC6CCCCO6)cn5)CC4)cnn3c2)cn1 (stereo not drawn) [Compound 184, 6-(1-methyl-1H-pyrazol-4-yl)-3-(4-(5-((tetrahydro-2H-pyran-2-yl)methyl)pyrimidin-2-yl)piperazin-1-yl)pyrazolo[1,5-a]pyridine] | 1.07 | 
14 | 153 nM | 4.97 |  | Cn1cc(-c2ccc3c(N4CCN(c5ncc([S+]([O-])c6ccccc6)cn5)CC4)cnn3c2)cn1 (stereo not drawn) [Compound 187, 6-(1-methyl-1H-pyrazol-4-yl)-3-(4-(5-(phenylsulfinyl)pyrimidin-2-yl)piperazin-1-yl)pyrazolo[1,5-a]pyridine] | 1.32 | 
15 | 430 nM | 6.34 |  | CC1CN(c2cnn3cc(-c4cnn(C)c4)ccc23)CCN1C(=O)OC(C)(C)C (stereo not drawn) [Compound 238, tert-butyl-2-methyl-4-(6-(1-methyl-1H-pyrazol-4-yl)pyrazolo[1,5-a]pyridin-3-yl)piperazine-1-carboxylate] | 1.54 | 
16 | 80.4 nM | 9.74 |  | Cn1cc(-c2ccc3c(N4CCN(c5ncc(Cc6ccccn6)cn5)CC4)cnn3c2)cn1 [Compound 250, 6-(1-methyl-1H-pyrazol-4-yl)-3-{4-[5-(pyridine-2-ylmethyl)pyrimidin-2-yl]piperazin-1-yl}pyrazolo[1,5-a]pyridine] | 6.19 | 
17 | 79.8 nM | 10.85 |  | Cn1cc(-c2ccc3c(N4CCN(c5ncc(C(CO)c6ccc(F)cc6)cn5)CC4)cnn3c2)cn1 (stereo not drawn) [Compound 257, 2-(4-fluorophenyl)-2-(2-(4-(6-(1-methyl-1H-pyrazol-4-yl)pyrazolo[1,5-a]pyridin-3-yl)piperazin-1-yl)pyrimidin-5-yl)ethan-1-ol] | 2.32 | 
18 | 17.1 nM | 5.04 |  | Cc1ccc(C(C)OC(=O)N2CCN(c3cnn4cc(-c5cnn(C)c5)ccc34)CC2)nc1 (stereo not drawn) [Compound 261, 1-(5-methylpyridin-2-yl)ethyl 4-[6-(1-methyl-1H-pyrazol-4-yl)pyrazolo[1,5-a]pyridin-3-yl]piperazine-1-carboxylate] | 3.71 | 
19 | 11.8 nM | 5.57 |  | C[C@@H](OC(=O)N1CCN(c2cnn3cc(-c4cnn(C)c4)ccc23)CC1)c1ccc(OC(F)(F)F)cc1 [Compound 268, (1R)-1-[4-(trifluoromethoxy)phenyl]ethyl 4-[6-(1-methyl-1H-pyrazol-4-yl)pyrazolo[1,5-a]pyridin-3-yl]piperazine-1-carboxylate] | 7.02 | 
20 | 158 nM | 7.71 |  | C[C@@H](OC(=O)N1CCN(c2cnn3cc(-c4cnn(C)c4)ccc23)CC1)c1ccc(Cl)cc1Cl [Compound 270, (1R)-1-(2,4-dichlorophenyl)ethyl 4-[6-(1-methyl-1H-pyrazol-4-yl)pyrazolo[1,5-a]pyridin-3-yl]piperazine-1-carboxylate] | 1.92 | 
21 | 13 nM | 9.05 |  | CC(OC(=O)N1CCN(c2cnn3cc(-c4cnn(C)c4)ccc23)CC1)c1ccc(C(F)(F)F)c(F)c1 (stereo not drawn) [Compound 273, 1-(3-fluoro-4-(trifluoromethyl)phenyl)ethyl 4-(6-(1-methyl-1H-pyrazol-4-yl)pyrazolo[1,5-a]pyridin-3-yl)piperazine-1-carboxylate] | 3.78 | 
22 | 58.9 nM | 3.62 |  | Cn1cc(-c2ccc3c(N4CCN(C(=O)NCc5ccc(C(F)(F)F)cc5)CC4)cnn3c2)cn1 [Compound 279, 4-[6-(1-methyl-1H-pyrazol-4-yl)pyrazolo[1,5-a]pyridin-3-yl]-N-[4-(trifluoromethyl)benzyl]piperazine-1-carboxamide] | 6.33 | 
23 | 547 nM | 4.27 |  | C[C@@H](OC(=O)N1CCN(c2cnn3cc(-c4cnn(C)c4)ccc23)CC1)c1cccnc1 [Compound 315, (1R)-1-pyridin-3-ylethyl 4-[6-(1-methyl-1H-pyrazol-4-yl)pyrazolo[1,5-a]pyridin-3-yl]piperazine-1-carboxylate] | 1.05 | 
24 | 17.3 nM | 12.64 |  | Cc1ccc(C(C)OC(=O)N2CCN(c3cnn4cc(-c5cnn(C)c5)ccc34)CC2)cn1 (stereo not drawn) [Compound 317, 1-(6-methylpyridin-3-yl)ethyl 4-[6-(1-methyl-1H-pyrazol-4-yl)pyrazolo[1,5-a]pyridin-3-yl]piperazine-1-carboxylate] | 2.97 | 
